Source: patent publication US12435046B2, “Alkynyl quinazoline compounds” (Black Diamond Therapeutics, Inc., priority 2019, dated 2025)

Experiments:
Type in all cases: cell-based
Conditions in all cases: Table A; BaF3 cells, 3 days
EGFR wt = molecular target: T1, EGFR wt (Homo sapiens, UniProt P00533); assay: BaF3 cell proliferation assay (CellTiterGlo), EGFR wt
T1 construct: expressed in transfected cells; host or cells: BaF3 (murine pro-B) cells, retroviral transduction with pMXs-IRES-Blasticidin
T1 sequence (P00533 25-1210): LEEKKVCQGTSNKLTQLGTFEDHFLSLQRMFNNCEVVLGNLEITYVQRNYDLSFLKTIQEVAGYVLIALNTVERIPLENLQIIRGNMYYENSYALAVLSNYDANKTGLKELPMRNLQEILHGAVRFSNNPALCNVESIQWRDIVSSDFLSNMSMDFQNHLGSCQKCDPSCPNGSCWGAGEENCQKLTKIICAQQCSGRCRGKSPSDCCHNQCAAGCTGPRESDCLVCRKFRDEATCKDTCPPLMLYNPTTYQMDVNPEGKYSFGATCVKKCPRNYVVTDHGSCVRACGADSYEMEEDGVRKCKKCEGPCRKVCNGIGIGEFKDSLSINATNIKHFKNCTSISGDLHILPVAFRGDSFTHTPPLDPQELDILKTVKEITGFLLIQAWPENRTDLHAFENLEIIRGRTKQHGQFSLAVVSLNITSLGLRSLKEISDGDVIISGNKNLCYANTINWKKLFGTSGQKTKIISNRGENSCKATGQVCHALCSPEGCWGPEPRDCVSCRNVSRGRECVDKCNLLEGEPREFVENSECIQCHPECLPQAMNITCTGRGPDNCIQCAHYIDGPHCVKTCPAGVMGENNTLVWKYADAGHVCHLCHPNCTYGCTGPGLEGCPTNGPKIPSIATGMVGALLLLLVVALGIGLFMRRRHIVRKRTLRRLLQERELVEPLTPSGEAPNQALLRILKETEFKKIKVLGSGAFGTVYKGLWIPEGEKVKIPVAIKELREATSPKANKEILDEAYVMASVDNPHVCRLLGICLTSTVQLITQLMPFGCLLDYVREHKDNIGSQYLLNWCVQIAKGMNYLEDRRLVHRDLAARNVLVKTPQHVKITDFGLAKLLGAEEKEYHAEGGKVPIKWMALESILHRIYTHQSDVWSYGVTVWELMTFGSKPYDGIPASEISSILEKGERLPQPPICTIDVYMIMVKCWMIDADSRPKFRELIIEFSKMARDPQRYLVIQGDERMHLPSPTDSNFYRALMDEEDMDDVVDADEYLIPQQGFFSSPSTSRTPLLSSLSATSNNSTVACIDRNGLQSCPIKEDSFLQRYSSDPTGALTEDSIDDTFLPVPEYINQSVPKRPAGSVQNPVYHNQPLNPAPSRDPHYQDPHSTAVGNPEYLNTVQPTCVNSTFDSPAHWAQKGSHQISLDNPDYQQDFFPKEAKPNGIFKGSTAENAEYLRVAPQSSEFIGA
How it was run: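 BaF3 cells engineered by retroviral transduction to express EGFR and selected for blasticidin resistance and IL-3 independent growth were suspended at 1.3E5 c/ml in RPMI with 10% heat inactivated FBS, 2% L-glutamine and 1% Pen/Strep. They were plated in triplicate in 96 well plates and exposed to vehicle or varying drug concentrations for 3 days. Viability was quantified by CellTiterGlo ATP luminescence, normalized to vehicle, and curves fitted in PRISM.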

EGFR V3 = molecular target: T2, EGFR V3 (Homo sapiens, UniProt P00533, DELINS30-297G); assay: BaF3 cell proliferation assay (CellTiterGlo), EGFR V3
T2 construct: expressed in transfected cells; host or cells: BaF3 (murine pro-B) cells, retroviral transduction with pMXs-IRES-Blasticidin
How it was run: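 BaF3 cells made IL-3-independent by retroviral expression of each EGFR or HER2 mutant were treated in triplicate with compound for 72 h. Viability was read by CellTiterGlo ATP luminescence and normalised to vehicle, and EC50 was fitted from dose-response curves.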

EGFR SVD = molecular target: T3, EGFR SVD (Homo sapiens, UniProt P00533, INS770SVD); assay: BaF3 cell proliferation assay (CellTiterGlo), EGFR SVD
T3 construct: expressed in transfected cells; host or cells: BaF3 (murine pro-B) cells, retroviral transduction with pMXs-IRES-Blasticidin
Experimental: (§1) Retroviral Production: EGFR mutants were subcloned into pMXs-IRES-Blasticidin (RTV-016, Cell Biolabs, San Diego, CA). Retroviral expression vector retrovirus was produced by transient transfection of HEK 293T cells with the retroviral EGFR mutant expression vector pMXs-IRES-Blasticidin (RTV-016, Cell Biolabs), pCMV-Gag-Pol vector and pCMV-VSV-G-Envelope vector. Briefly, HEK 293T/17 cells were plated in 100 mm collagen coated plate (354450, Corning Life Sciences, Tewksbury, MA) (4×10^5 per plate) and incubated overnight. The next day, retroviral plasmids (3 ng of EGFR mutant, 1.0 ng of pCMV-Gag-Pol and 0.5 ng pCMV-VSV-G) were mixed in 500 n1 of Optimem (31985, Life Technologies). The mixture was incubated at room temperature for 5 min and then added to Optimem containing transfection reagent Lipofectamine (11668, Invitrogen) and incubated for 20 minutes. Mixture was then added dropwise to HEK 293T cells. The next day the medium was replaced with fresh culture medium and retrovirus was harvested @ 24 and 48 hrs.
(§2) Generation of EGFR mutant stable cell lines: BaF3 cells (1.5E5 cells) were infected with 1 ml of viral supernatant supplemented with 8 ng/ml polybrene by centrifuging for 30 min at 1000 rpm. Cells were placed in a 37° C. incubator overnight. Cells were then spun for 5 minutes to pellet the cells. Supernatant was removed and cells re-infected a fresh 1 ml of viral supernatant supplemented with 8 ng/ml polybrene by centrifuging for 30 min at 1000 rpm. Cells were placed in 37° C. incubator overnight. Cells were then maintained in RPMI containing 10% Heat Inactivated FBS, 2% L-glutamine containing 10 ng/ml IL-3. After 48 hours cells were selected for retroviral infection in 10 […] for one week. Blasticidin resistant populations were washed twice in phosphate buffered saline before plating in media lacking IL-3 to select for IL-3 independent growth.
(§3) Assay for cell proliferation: BaF3 cell lines were resuspended at 1.3E5 c/ml in RPMI containing 10% Heat Inactivated FBS, 2% L-glutamine and 1% Pen/Strep and dispensed in triplicate (17.5E4 c/well) into 96 well plates. To determine the effect of drug on cell proliferation, cells incubated for 3 days in the presence of vehicle control or test drug at varying concentrations. Inhibition of cell growth was determined by luminescent quantification of intracellular ATP content using CellTiterGlo (Promega), according to the protocol provided by the manufacturer. Comparison of cell number on day 0 versus 72 hours post drug treatment was used to plot dose-response curves. The number of viable cells was determined and normalized to vehicle-treated controls. Inhibition of proliferation, relative to vehicle-treated controls was expressed as a fraction of 1 and graphed using PRISM® software (Graphpad Software, San Diego, CA). EC50 values were determined with the same application.

EGFR NPH = molecular target: T4, EGFR NPH (Homo sapiens, UniProt P00533, INS773NPH); assay: BaF3 cell proliferation assay (CellTiterGlo), EGFR NPH
T4 construct: expressed in transfected cells; host or cells: BaF3 (murine pro-B) cells, retroviral transduction with pMXs-IRES-Blasticidin
T4 sequence (P00533 with tags, fused parts or gaps INS773NPH): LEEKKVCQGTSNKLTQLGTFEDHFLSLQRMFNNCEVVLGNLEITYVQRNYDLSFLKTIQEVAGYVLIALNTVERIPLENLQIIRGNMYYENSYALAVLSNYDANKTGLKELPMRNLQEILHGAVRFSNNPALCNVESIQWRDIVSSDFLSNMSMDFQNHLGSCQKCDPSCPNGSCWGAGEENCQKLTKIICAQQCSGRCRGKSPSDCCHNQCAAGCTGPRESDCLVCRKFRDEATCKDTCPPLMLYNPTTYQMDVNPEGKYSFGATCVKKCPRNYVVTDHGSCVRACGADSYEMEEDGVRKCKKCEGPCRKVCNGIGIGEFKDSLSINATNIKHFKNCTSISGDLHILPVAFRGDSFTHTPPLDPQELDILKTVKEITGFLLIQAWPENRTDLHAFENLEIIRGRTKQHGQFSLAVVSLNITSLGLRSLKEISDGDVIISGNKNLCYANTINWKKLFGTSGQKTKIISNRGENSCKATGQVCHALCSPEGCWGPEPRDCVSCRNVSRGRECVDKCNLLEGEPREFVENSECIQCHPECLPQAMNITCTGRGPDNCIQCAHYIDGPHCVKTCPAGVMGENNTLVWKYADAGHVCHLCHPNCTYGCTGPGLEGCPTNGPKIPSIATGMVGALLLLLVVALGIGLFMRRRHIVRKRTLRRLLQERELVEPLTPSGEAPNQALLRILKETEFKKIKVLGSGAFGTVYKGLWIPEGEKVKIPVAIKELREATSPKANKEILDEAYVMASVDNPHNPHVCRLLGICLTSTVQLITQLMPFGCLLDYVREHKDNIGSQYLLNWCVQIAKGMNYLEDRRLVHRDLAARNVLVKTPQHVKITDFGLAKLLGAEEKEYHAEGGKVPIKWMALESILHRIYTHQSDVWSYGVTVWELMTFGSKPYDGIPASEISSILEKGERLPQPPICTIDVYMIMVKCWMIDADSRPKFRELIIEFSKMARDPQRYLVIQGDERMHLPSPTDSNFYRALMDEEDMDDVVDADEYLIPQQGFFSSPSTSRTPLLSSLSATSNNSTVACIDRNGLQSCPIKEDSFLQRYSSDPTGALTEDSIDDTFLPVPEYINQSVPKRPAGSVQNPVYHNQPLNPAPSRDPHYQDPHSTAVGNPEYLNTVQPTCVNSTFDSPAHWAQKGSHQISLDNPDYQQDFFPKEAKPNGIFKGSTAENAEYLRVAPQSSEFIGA
Experimental: as §1, §2, §3

HER2 S310F = molecular target: T5, HER2 S310F (Homo sapiens, UniProt P04626, S310F); assay: BaF3 cell proliferation assay (CellTiterGlo), HER2 S310F
T5 construct: expressed in transfected cells; host or cells: BaF3 (murine pro-B) cells
T5 sequence (P04626 23-1255 S310F): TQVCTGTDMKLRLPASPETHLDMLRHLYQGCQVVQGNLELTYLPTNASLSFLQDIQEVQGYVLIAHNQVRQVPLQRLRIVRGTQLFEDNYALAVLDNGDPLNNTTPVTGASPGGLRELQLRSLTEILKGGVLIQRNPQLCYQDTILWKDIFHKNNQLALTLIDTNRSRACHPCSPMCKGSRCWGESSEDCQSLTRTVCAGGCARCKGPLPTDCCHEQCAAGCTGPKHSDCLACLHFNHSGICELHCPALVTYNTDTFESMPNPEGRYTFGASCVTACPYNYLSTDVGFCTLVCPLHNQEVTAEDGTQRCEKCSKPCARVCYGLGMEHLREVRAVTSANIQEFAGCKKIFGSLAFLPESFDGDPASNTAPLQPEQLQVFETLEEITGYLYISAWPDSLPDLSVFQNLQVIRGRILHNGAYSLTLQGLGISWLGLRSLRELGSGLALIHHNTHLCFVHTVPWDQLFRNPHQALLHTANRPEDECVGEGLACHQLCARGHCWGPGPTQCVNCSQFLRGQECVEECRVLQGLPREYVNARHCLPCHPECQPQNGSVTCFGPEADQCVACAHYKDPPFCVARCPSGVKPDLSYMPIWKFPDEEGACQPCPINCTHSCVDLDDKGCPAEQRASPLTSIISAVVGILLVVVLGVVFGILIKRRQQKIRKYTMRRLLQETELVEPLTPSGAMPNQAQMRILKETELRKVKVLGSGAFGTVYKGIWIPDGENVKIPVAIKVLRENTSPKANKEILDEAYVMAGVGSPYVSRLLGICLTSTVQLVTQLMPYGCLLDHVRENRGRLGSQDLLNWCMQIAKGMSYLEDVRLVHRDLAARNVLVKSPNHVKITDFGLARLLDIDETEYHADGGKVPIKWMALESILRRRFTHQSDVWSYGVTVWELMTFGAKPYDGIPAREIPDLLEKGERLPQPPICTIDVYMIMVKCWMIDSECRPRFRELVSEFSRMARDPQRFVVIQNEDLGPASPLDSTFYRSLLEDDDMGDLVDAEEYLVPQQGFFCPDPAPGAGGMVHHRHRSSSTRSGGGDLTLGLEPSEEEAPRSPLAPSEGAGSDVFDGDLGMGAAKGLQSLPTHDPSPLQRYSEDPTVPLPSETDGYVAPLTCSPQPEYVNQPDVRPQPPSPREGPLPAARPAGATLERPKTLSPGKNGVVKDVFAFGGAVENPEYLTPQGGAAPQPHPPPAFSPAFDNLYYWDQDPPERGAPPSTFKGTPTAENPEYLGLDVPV

HER2 YVMA = molecular target: T6, HER2 YVMA (Homo sapiens, UniProt P04626, INS775YVMA); assay: BaF3 cell proliferation assay (CellTiterGlo), HER2 YVMA
T6 construct: expressed in transfected cells; host or cells: BaF3 (murine pro-B) cells
T6 sequence (P04626 with tags, fused parts or gaps INS775YVMA): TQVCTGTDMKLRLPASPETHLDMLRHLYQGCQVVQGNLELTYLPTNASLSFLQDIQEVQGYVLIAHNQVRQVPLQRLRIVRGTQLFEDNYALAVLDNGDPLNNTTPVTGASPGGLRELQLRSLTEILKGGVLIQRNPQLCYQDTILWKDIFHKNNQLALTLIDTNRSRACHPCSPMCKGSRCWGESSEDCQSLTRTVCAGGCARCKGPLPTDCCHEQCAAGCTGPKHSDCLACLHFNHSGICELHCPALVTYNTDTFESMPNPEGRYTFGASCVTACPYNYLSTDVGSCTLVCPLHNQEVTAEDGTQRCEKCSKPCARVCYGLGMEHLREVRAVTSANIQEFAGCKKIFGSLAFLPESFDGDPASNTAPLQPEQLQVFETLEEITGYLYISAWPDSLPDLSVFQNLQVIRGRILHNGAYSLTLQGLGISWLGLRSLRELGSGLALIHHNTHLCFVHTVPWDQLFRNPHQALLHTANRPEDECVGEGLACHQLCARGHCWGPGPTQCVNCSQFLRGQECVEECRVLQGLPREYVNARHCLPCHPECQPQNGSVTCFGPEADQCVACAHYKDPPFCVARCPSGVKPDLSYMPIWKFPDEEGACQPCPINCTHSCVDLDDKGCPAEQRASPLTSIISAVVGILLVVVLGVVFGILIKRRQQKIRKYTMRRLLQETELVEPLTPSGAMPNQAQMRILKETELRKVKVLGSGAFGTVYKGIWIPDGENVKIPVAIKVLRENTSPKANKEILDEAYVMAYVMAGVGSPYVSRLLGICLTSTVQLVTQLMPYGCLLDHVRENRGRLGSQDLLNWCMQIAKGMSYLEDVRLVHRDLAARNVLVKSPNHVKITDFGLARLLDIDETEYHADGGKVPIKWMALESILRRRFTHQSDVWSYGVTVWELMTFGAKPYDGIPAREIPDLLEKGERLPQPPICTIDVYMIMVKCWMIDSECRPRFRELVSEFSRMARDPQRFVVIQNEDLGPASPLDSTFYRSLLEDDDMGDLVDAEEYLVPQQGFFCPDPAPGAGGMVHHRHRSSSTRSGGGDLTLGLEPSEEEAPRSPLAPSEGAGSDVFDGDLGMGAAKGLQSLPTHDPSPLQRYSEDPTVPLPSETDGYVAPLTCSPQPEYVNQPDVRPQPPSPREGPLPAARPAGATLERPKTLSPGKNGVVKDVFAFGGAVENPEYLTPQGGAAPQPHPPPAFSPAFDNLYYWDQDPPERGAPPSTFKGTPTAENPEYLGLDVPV

SMILES	IC50 (EGFR wt)	IC50 (EGFR V3)	IC50 (EGFR SVD)	IC50 (EGFR NPH)	IC50 (HER2 S310F)	IC50 (HER2 YVMA)
C=CC(=O)Nc1cc2c(Nc3ccc(OCc4ccccn4)c(Cl)c3)ncnc2cc1C#CC1(C)CCN(C)C1 (stereo not shown) [Compound 12, N-(4-((3-chloro-4-(pyridin-2-ylmethoxy)phenyl)amino)-7-((1,3-dimethylpyrrolidin-3-yl)ethynyl)quinazolin-6-yl)acrylamide]	> 500 nM	≤ 50 nM	≤ 50 nM	≤ 50 nM	≤ 50 nM	≤ 50 nM
C=CC(=O)Nc1cc2c(Nc3cccc(Cl)c3F)ncnc2cc1C#C[C@@]1(C)CCCN(C)C1 [Compound 54, (R)—N-(4-((3-chloro-2-fluorophenyl)amino)-7-((1,3-dimethylpiperidin-3-yl)ethynyl)quinazolin-6-yl)acrylamide]	> 500 nM	50 to 100 nM	–	–	100 to 500 nM	> 500 nM
C=CC(=O)Nc1cc2c(Nc3cccc(Cl)c3F)ncnc2cc1C#C[C@@]1(C)CCN(C2COC2)C1 [Compound 59, (R)—N-(4-((3-chloro-2-fluorophenyl)amino)-7-((3-methyl-1-(oxetan-3-yl)pyrrolidin-3-yl)ethynyl)quinazolin-6-yl)acrylamide]	100 to 500 nM	≤ 50 nM	–	–	100 to 500 nM	> 500 nM
C=CC(=O)Nc1cc2c(Nc3ccc(OCc4cccc(F)c4)c(Cl)c3)ncnc2cc1C#C[C@@H]1[C@H]2CN(C)C[C@@H]12 [Compound 76, N-(4-((3-chloro-4-((3-fluorobenzyl)oxy)-phenyl)amino)-7-(((1R,5S,6s)-3-methyl-3-azabicyclo[3.1.0]hexan-6-yl)ethynyl)quinazolin-6-yl)acrylamide]	> 500 nM	100 to 500 nM	–	–	50 to 100 nM	100 to 500 nM
C=CC(=O)Nc1cc2c(Nc3ccc(OCc4ccccn4)c(Cl)c3)ncnc2cc1C#CC1(C)CCN(C)CC1 [Compound 72, N-(4-((3-chloro-4-(pyridin-2-ylmethoxy)phenyl)amino)-7-((1,4-dimethylpiperidin-4-yl)ethynyl)quinazolin-6-yl)acrylamide]	> 500 nM	≤ 50 nM	–	–	≤ 50 nM	50 to 100 nM
C=CC(=O)Nc1cc2c(Nc3ccc(OCc4ccccn4)c(Cl)c3)ncnc2cc1C#C[C@H]1[C@H]2CN(C)C[C@@H]12 [Compound 79, N-(4-((3-chloro-4-(pyridin-2-ylmethoxy)phenyl)amino)-7-(((1R,5S,6r)-3-methyl-3-azabicyclo[3.1.0]hexan-6-yl)ethynyl)quinazolin-6-yl)acrylamide]	> 500 nM	> 500 nM	–	–	> 500 nM	> 500 nM
C=CC(=O)Nc1cc2c(Nc3cccc(Cl)c3F)ncnc2cc1C#C[C@]1(F)CCN(C)C1 [Compound 46, N-{4-[(3-chloro-2-fluorophenyl)amino]-7-{2-[(3R)-3-fluoro-1-methyl-pyrrolidin-3-yl]ethynyl}quinazolin-6-yl}prop-2-enamide]	100 to 500 nM	≤ 50 nM	–	–	100 to 500 nM	> 500 nM
C=CC(=O)Nc1cc2c(Nc3cccc(Cl)c3F)ncnc2cc1C#CC1(C)CCCN(C)C1 (stereo not shown) [Compound 66, N-(4-((3-chloro-2-fluorophenyl)amino)-7-((1,3-dimethylpiperidin-3-yl)ethynyl)quinazolin-6-yl)acrylamide]	> 500 nM	≤ 50 nM	–	–	100 to 500 nM	> 500 nM
C=CC(=O)Nc1cc2c(Nc3ccc(OCc4ccccn4)c(Cl)c3)ncnc2cc1C#CC1(C)CCCN(C)C1 (stereo not shown) [Compound 67, N-(4-((3-chloro-4-(pyridin-2-ylmethoxy)phenyl)amino)-7-((1,3-dimethylpiperidin-3-yl)ethynyl)quinazolin-6-yl)acrylamide]	> 500 nM	50 to 100 nM	–	–	≤ 50 nM	100 to 500 nM
C=CC(=O)Nc1cc2c(Nc3cccc(Cl)c3F)ncnc2cc1C#CC1(C)CN(C)C2(COC2)C1 (stereo not shown) [Compound 47, N-(4-((3-chloro-2-fluorophenyl)amino)-7-((5,7-dimethyl-2-oxa-5-azaspiro[3.4]octan-7-yl)ethynyl)quinazolin-6-yl)acrylamide]	> 500 nM	100 to 500 nM	–	–	> 500 nM	> 500 nM

The next lines start with the values.

IC50 (EGFR wt)	IC50 (EGFR V3)	IC50 (EGFR SVD)	IC50 (EGFR NPH)	IC50 (HER2 S310F)	IC50 (HER2 YVMA)	SMILES
50 to 100 nM	≤ 50 nM	100 to 500 nM	50 to 100 nM	50 to 100 nM	100 to 500 nM	C=CC(=O)Nc1cc2c(Nc3cccc(Cl)c3F)ncnc2cc1C#C[C@]1(C)CCN(C)C1 [Compound 3, (S)—N-(4-((3-chloro-2-fluorophenyl)amino)-7-((1,3-dimethylpyrrolidin-3-yl)ethynyl)quinazolin-6-yl)acrylamide]
100 to 500 nM	≤ 50 nM	100 to 500 nM	100 to 500 nM	–	≤ 50 nM	C=CC(=O)Nc1cc2c(Nc3ccc(Oc4ccccc4)cc3)ncnc2cc1C#C[C@]12C[C@H]1CN(C)C2 [Compound 41, N-(7-(((1S,5R)-3-methyl-3-azabicyclo[3.1.0]hexan-1-yl)ethynyl)-4-((4-phenoxyphenyl)amino)quinazolin-6-yl)acrylamide]
50 to 100 nM	≤ 50 nM	–	–	≤ 50 nM	100 to 500 nM	C=CC(=O)Nc1cc2c(Nc3ccc(O)c(Cl)c3)ncnc2cc1C#C[C@@H]1[C@H]2CN(C)C[C@@H]12 [Compound 73, N-(4-((3-chloro-4-hydroxyphenyl)amino)-7-(((1R,5S,6s)-3-methyl-3-azabicyclo[3.1.0]hexan-6-yl)ethynyl)quinazolin-6-yl)acrylamide]
50 to 100 nM	≤ 50 nM	–	–	50 to 100 nM	100 to 500 nM	C=CC(=O)Nc1cc2c(Nc3cccc(Cl)c3F)ncnc2cc1C#C[C@]12C[C@H]1CN(C)C2 [Compound 49, N-(4-((3-chloro-2-fluorophenyl)amino)-7-(((1S,5R)-3-methyl-3-azabicyclo[3.1.0]hexan-1-yl)ethynyl)quinazolin-6-yl)acrylamide]
≤ 50 nM	> 500 nM	–	–	> 500 nM	> 500 nM	CNC(=O)Nc1cc2c(Nc3cccc(Cl)c3F)ncnc2cc1C#CC1(C)CCN(C)C1 (stereo not shown) [Compound 57, 1-(4-((3-chloro-2-fluorophenyl)amino)-7-((1,3-dimethylpyrrolidin-3-yl)ethynyl)quinazolin-6-yl)-3-methylurea]
100 to 500 nM	100 to 500 nM	–	–	100 to 500 nM	> 500 nM	C=CC(=O)Nc1cc2c(Nc3cccc(Cl)c3F)ncnc2cc1C#C[C@]12C[C@H]1CN(C1COC1)C2 [Compound 48, N-(4-((3-chloro-2-fluorophenyl)amino)-7-(((1S,5R)-3-(oxetan-3-yl)-3-azabicyclo[3.1.0]hexan-1-yl)ethynyl)quinazolin-6-yl)acrylamide]
100 to 500 nM	≤ 50 nM	–	–	50 to 100 nM	100 to 500 nM	C=CC(=O)Nc1cc2c(Nc3cccc(Cl)c3F)ncnc2cc1C#CC1(F)CCN(C)C1 (stereo not shown) [Compound 60, N-(4-((3-chloro-2-fluorophenyl)amino)-7-((3-fluoro-1-methylpyrrolidin-3-yl)ethynyl)quinazolin-6-yl)acrylamide]
